Among the data in BindingDB's records for doi:10.1016/j.bmcl.2006.06.076 (Fujisawa Pharmaceutical, 2006) are IC50 values, retold here.

The structures appear in SMILES notation.

Test [1] can be described thus: Agonist activity at human PGI2 receptor assessed as inhibition of ADP-induced platelet aggregation.
A short description of test [2]: Agonist activity at rat PGI2 receptor assessed as inhibition of ADP-induced platelet aggregation.

Consider `O=C(O)COc1cccc(Cc2ccccc2-c2nc(-c3ccccc3)c(-c3ccccc3)o2)c1` [sodium 2-(3-(2-(4,5-diphenyloxazol-2-yl)benzyl)phenoxy)acetate], for which the IC50 in test [1] is 930 nM.

For `O=C(O)COc1cccc(CN2CCC[C@@H]2c2nc(-c3ccccc3)c(-c3ccccc3)o2)c1` [sodium (R)-2-(3-((2-(4,5-diphenyloxazol-2-yl)pyrrolidin-1-yl)methyl)phenoxy)acetate], the IC50 in test [1] was 48 nM; in test [2], 700 nM.

Consider `O=C(O)COc1cccc(CC2CCCC=C2c2nc(-c3ccccc3)c(-c3ccccc3)o2)c1` [Sodium; {3-[(R)-2-(4,5-diphenyl-oxazol-2-yl)-cyclohex-2-enylmethyl]-phenoxy}-acetate], for which the IC50 in test [1] was determined as 60 nM; in test [2], 1200 nM.

Regarding `O=C(O)COc1cccc(C[C@@H]2CCCC[C@H]2c2nc(-c3ccccc3)c(-c3ccccc3)o2)c1` [sodium 2-(3-(((1S,2R)-2-(4,5-diphenyloxazol-2-yl)cyclohexyl)methyl)phenoxy)acetate], the IC50 in test [1] was 114 nM.

As to `O=C(O)COc1cccc(CN2CCC[C@H]2c2nc(-c3ccccc3)c(-c3ccccc3)o2)c1` [sodium (S)-2-(3-((2-(4,5-diphenyloxazol-2-yl)pyrrolidin-1-yl)methyl)phenoxy)acetate], the values for the IC50 in test [1] and in test [2] were 58 nM and greater than 10000 nM, respectively.

Take `O=C(O)COc1cccc(CC2=C(c3nc(-c4ccccc4)c(-c4ccccc4)o3)CCCC2)c1` [sodium 2-(3-((2-(4,5-diphenyloxazol-2-yl)cyclohex-1-enyl)methyl)phenoxy)acetate]: in test [1], the IC50 came to 533 nM.

Consider `O=C(O)COc1cccc(C[C@@H]2CCC[C@H]2c2nc(-c3ccccc3)c(-c3ccccc3)o2)c1` [sodium 2-(3-(((1S,2R)-2-(4,5-diphenyloxazol-2-yl)cyclopentyl)methyl)phenoxy)acetate], for which the IC50 in test [1] amounted to 39 nM.

Take `O=C(O)COc1cccc(C[C@@H]2CCCC[C@@H]2c2nc(-c3ccccc3)c(-c3ccccc3)o2)c1` [sodium 2-(3-(((1S,2S)-2-(4,5-diphenyloxazol-2-yl)cyclohexyl)methyl)phenoxy)acetate]: the IC50 in test [1] stood at 115 nM.

Turning to `O=C(O)COc1cccc(C[C@@H]2CCC[C@@H]2c2nc(-c3ccccc3)c(-c3ccccc3)o2)c1` [sodium 2-(3-(((1S,2S)-2-(4,5-diphenyloxazol-2-yl)cyclopentyl)methyl)phenoxy)acetate], in test [1], the IC50 was found to be 53 nM.

A word on the IC50: it is the midpoint of a concentration-inhibition curve.
